According to patent publication US5908842A, “Substituted 2-acylamino-pyridines as inhibitors of nitric oxide synthase” (Merck & Co., Inc., priority 1997, dated 1999):

Target: Human Inducible Nitric Oxide Synthase (Homo sapiens, UniProt P35228)
Experiment: Inhibition of human inducible nitric oxide synthase (formation of L-[3H]citrulline from L-[3H]arginine)
Format: biochemical
Conditions: 1 μM L-Arg, pH 7.5, room temperature, 30 minutes; for inhibition at 50 µM: 50 μM inhibitor
Text: J Lowenstein and S. H. Snyder in Methods in Enzymology, Vol. 233, L. Packer, ed., Academic Press, NY, 1994, Ch.26, pp. 264-269.
Various assays for NOS activity have been reported in the literature and are reviewed in the following: M. E. Murphy and E. Noack in Methods in Enzymology, Vol. 233, L. Packer, ed., Academic Press, NY, 1994, Ch.26, pp. 240-250 and J. M. Hevel and M. A. Marletta in Methods in Enzymology, Vol. 233, L. Packer, ed., Academic Press, NY, 1994, Ch.26, pp. 250-258. Details for the assay protocols to measure NOS activity are as follows:
NOS activity is measured as the formation of L-[2,3,4,5-^3 H]Citrullinefrom L-[2,3,4,5-^3 H]Arginine. The incubation buffer (100 μL) contained; 100 mM TES, pH 7.5, 5 μM FAD, 5 μM FMN, 10 μM BH4, 0.5 mM NADPH, 0.5 mM DTT, 0.5 mg/mL BSA, 2 mM CaCl2, 10 μg/mL calmodulin (bovine), 1 μM L-Arg, 0.2 μCi L-[2,3,4,5-^3 H]Arg, and the inhibitor in aqueous DMSO (max. 5 %). The reaction is initiated by addition of enzyme. Incubations are performed at room temperature for 30 minutes and stopped by the addition of an equal volume of quenching buffer consisting of 200 mM sodium citrate, pH 2.2, 0.02% sodium azide. Reaction products are separated by passing through a cation exchange resin and quantitated as cpm by scintillation counting. Percent inhibition is calculated relative to enzyme incubated without inhibitor according to: % inhibition =[…](cpm L-[2,3,4,5-^3 H]Cit with inhibitor/cpm L-[2,3,4,5-^3 H]Cit without inhibitor).

Row | IC50 [µM] | inhibition at 50 µM [%] | SMILES
1 | < 50 | 57 | Cc1ccnc(NC(=S)NC2CC(C)CC(C)(C)C2)c1 (stereo not shown) [Example 13, N-(2-(4-Methylpyridyl))-N'-(3,3,,5-trimethylcyclohexyl)-thiourea]
2 | – | 54 | Cc1ccnc(NC(=S)Nc2cccc3ccccc23)c1 [Example 10, N-(2-(4-Methylpyridyl))-N'-(1-naphthyl)-thiourea]
3 | < 10 | – | CCNC(=S)Nc1cc(C)ccn1 [Example 7, N-(2-(4-Methylpyridyl))-N'-ethyl-thiourea]
4 | – | 50 | Cc1ccnc(NC(=S)Nc2ccccc2)c1 [Example 8, N-(2-(4-Methylpyridyl))-N'-phenyl-thiourea]
5 | < 50 | 70 | Cc1ccnc(NC(=S)Nc2cccc(F)c2)c1 [Example 11, N-(2-(4-Methylpyridyl))-N'-(3-fluorophenyl)-thiourea]
6 | < 1 | 92 | CCN(CC)S(=O)(=O)NC(=O)Nc1cc(C)ccn1 [Example 18]
7 | < 50 | 51 | C=CCNC(=S)Nc1cc(C)cc(C)n1 [Example 5, N-(2-(4,6-dimethylpyridyl))-N'-allyl-thiourea]
8 | < 50 | 63 | Cc1ccnc(NC(N)=S)c1 [Example 2, N-(2-(4-Methylpyridyl))-thiourea]
9 | < 10 | 85 | Cc1ccnc(NC(=S)NCCC[C@H](N)C(=O)O)c1 [Example 15, N-(2-(4-Methylpyridyl))-N'-(((S)-4-amino-4-carboxy)-n-butyl)-thiourea]
10 | < 1 | 100 | Cc1ccnc(NC(=S)NC(C)C)c1 [Example 6, N-(2-(4-Methylpyridyl))-N'-isopropyl-thiourea]
11 | < 1 | – | CCN(CC)S(=O)(=O)N(C)C(=O)Nc1cc(C)ccn1 [Example 20]
12 | < 50 | 75 | Cc1cc(C)nc(NC(N)=S)c1 [Example 3, N-(2-(4,6-dimethylpyridyl))-thiourea]
13 | < 10 | 96 | Cc1ccnc(NC(=O)NC(=O)c2ccccc2)c1 [Example 14, N-(2-(4-Methylpyridyl))-N'-benzoyl-urea]
14 | < 1 | – | COC(=O)C(=O)Nc1cc(C)ccn1 [Example 21, Oxalamide, N-(4-methyl-2-pyridyl), methyl ester]
15 | < 50 | 76 | Cc1ccnc(NC(=S)NCc2ccccc2)c1 [Example 12]
16 | < 50 | – | CCN(CC)S(=O)(=O)NC(=O)Nc1ccc(C)cn1 [Example 19]
17 | < 50 | 55 | S=C(Nc1ccc(Br)cc1)Nc1ccccn1 [Example 9, N-(2-Pyridyl)-N'-(4-bromophenyl)-thiourea]
18 | < 10 | – | CCN(CC)S(=O)(=O)NC(=O)Nc1ncccc1C [Example 17]
19 | < 50 | 54 | Cc1ccc(NC(=O)Nc2cc(C)ccn2)cc1 [Example 1, N-(2-(4-Methylpyridyl))-N'-(4-methylphenyl)-urea]
20 | < 10 | 55 | CCN(CC)S(=O)(=O)NC(=O)Nc1ccccn1 [Example 16, N-(2-Pyridyl)-N'-(diethylaminosulfonyl)-urea]
21 | > 50 | 57 | COC(=O)CC(=O)Nc1cc(C)ccn1 [Example 22, Malonamide, N-(4-methyl-2-pyridyl), methyl ester]
22 | < 10 | 86 | C=CCNC(=S)Nc1ccc(C(F)(F)F)cn1 [Example 4, N-(2-(5-trifluoromethylpyridyl))-N'-allyl-thiourea]
